{
  "source": "patent US20160251402A1",
  "about": "“MICROPEPTIDES AND USE OF SAME FOR MODULATING GENE EXPRESSION” (UNIVERSITE PAUL SABATIER TOULOUSE III, priority 2013, published 2016)",
  "key": {"[1]": {"test_system": "HAM1 (accession No. MtGI9-TC114268)", "experiment": "Expression of the HAM1 gene in M. truncatula (qRT-PCR)", "assay_type": "in vivo, Medicago truncatula", "description": "(§1) The surface of seeds of M truncatula was sterilized and they were left to germinate on agar plates for 5 days at 4° C. in the dark. The young shoots were then grown on 12-cm square plates filled with Fahraeus medium without nitrogen and containing 7.5 μM phosphate (Lauressergues et al., Plant J., 72(3): 512-22, 2012). The lateral roots were counted every day. In pots, the plants were watered every other day with modified Long Ashton medium with low phosphorus content (Balzergue et al., Journal of Experimental Botany, (62)1049-1060, 2011).\n(§2) The peptides were synthesized by Eurogentec or Smartox-Biotech. MtmiPEP171b1 was resuspended in a solution of 40% water/50% acetonitrile/10% acetic acid (v/v/v), and the other peptides were resuspended in water.\n(§3) The total RNA was extracted from roots of M. truncatula or from tobacco leaves using the extraction kit RNeasy Plant Mini Kit (Qiagen). […]\n(§4) The mean values of the relative expression of the genes or of the production of lateral roots were analysed using the Student test or the Kruskal-Wallis test. […]\n(§5) The composite plants having roots transformed with Agrobacterium rhizogenes were obtained by the method described in Boisson-Dernier et al. (Mol Plant-Microbe Interact, 18: 1269-1276, 2005). The transformed roots were verified and selected by observations of DsRED with a binocular fluorescence magnifier. […]"}, "[2]": {"test_system": "HAM2 (accession No. MtGI9-TC120850)", "experiment": "Expression of the HAM2 gene in M. truncatula (qRT-PCR)", "assay_type": "in vivo, Medicago truncatula", "description": "as §1, §2, §3, §4, §5"}, "[3]": {"test_system": "Medicago truncatula lateral roots", "experiment": "Number of lateral roots in M. truncatula", "assay_type": "in vivo", "description": "as §1, with “2011). The mean values of the relative expression of the genes or of the production of lateral roots were analysed using the Student test or the Kruskal-Wallis test. The error bars represent the SEM (Standard Error of the Mean). The asterisks indicate a significant difference (p<0.05).” for “2011).”"}, "[4]": {"test_system": "pre-MtmiR171b, pre-MtmiR169, pre-MtmiR169a, pre-MtmiR171a, pre-MtmiR171h, pre-MtmiR393a, pre-MtmiR393b, pre-MtmiR396a, pre-MtmiR396b", "experiment": "Specificity: expression of different precursors of microRNAs in M. truncatula", "assay_type": "in vivo, Medicago truncatula", "details": "plants overexpressing MtmiPEP171b1 or treated with MtmiPEP171b1 (0.1 μM)", "description": "The expression of different microRNA precursors of Medicago truncatula (MtmiR171b SEQ ID NO: 319, MtmiR169 SEQ ID NO: 367, MtmiR169a SEQ ID NO: 368, MtmiR171a SEQ ID NO: 369, MtmiR171h SEQ ID NO: 370, MtmiR393a SEQ ID NO: 371, MtmiR393b SEQ ID NO: 372, MtmiR396a SEQ ID NO: 373 and MtmiR396b SEQ ID NO: 374) was determined and compared between control plants and plants in which MtmiORF171b encoding MtmiPEP171b1 was overexpressed (FIG. 5A), or between control plants and plants grown on culture medium containing MtmiPEP171b1 (FIG. 5B).\n(§6) The total RNA was extracted from roots of M. truncatula or from tobacco leaves using the extraction kit RNeasy Plant Mini Kit (Qiagen). The reverse transcription was performed using the reverse transcriptase SuperScript II (Invitrogen) starting from 500 ng of total RNA. Three repetitions (n=3) were carried out, each with two technical repetitions. Each experiment was repeated from two to three times. The amplifications by qPCR were carried out using a LightCycler 480 System thermocycler (Roche Diagnostics) by the method described in Lauressergues et al. (Plant J., 72(3): 512-22, 2012)."}, "MtmiR171b": {"test_system": "MtmiR171b", "experiment": "Accumulation of pri-/pre-/mature MtmiR171b in transformed tobacco leaves", "assay_type": "in vivo, Nicotiana benthamiana", "description": "In order to determine whether the mechanism of regulation of the microRNAs is conserved in other plant species, the regulation of MtmiR171b by MtmiPEP171b1 was tested in a different cellular model. For this, MtmiR171b and MtmiPEP171b1 were introduced into tobacco leaves.\nThe accumulation of MtmiR171b was measured in tobacco leaves transformed in order to express MtmiR171b of Medicago truncatula starting from wild-type pri-miRNA capable of producing MtmiPEP171b1, or starting from a mutated version of pri-miRNA incapable of producing MtmiPEP171b1 (in which the start codon ATG of MtmiORF171b has been replaced with ATT) (FIG. 6 and FIG. 20).\nThe accumulation of pre-MtmiR171b was measured in tobacco leaves transformed in order to express MtmiR171b of Medicago truncatula alone (control), or additionally expressing the wild-type MtmiORF171b of Medicago truncatula (35SmiPEP171b1 ATG), or a mutated version of MtmiORF171b in which the start codon ATG has been replaced with ATT (35SmiPEP171b1 ATT) (FIG. 7 and FIG. 21).\nThe leaves were watered by spraying with the peptides using peptide solutions at different concentrations (0.01, 0.1, 1 μM), firstly 12 h before sampling and then a second time 30 min before sampling.\nas §6\nThe DNA fragments of interest were amplified with Pfu polymerase (Promega). The DNA fragments were cloned using the XhoI and NotI enzymes into a pPEX-DsRED plasmid for an overexpression under the control of the constitutive strong promoter 35S, and using the KpnI-NcoI enzymes into a pPEX GUS plasmid for the reporter genes, by the method described in Combier et al. (Genes & Dev, 22: 1549-1559, 2008).\nThe composite plants having roots transformed with Agrobacterium rhizogenes were obtained by the method described in Boisson-Dernier et al. (Mol Plant-Microbe Interact, 18: 1269-1276, 2005). The transformed roots were verified and selected by observations of DsRED with a binocular fluorescence magnifier. The control roots correspond to roots transformed with A. rhizogenes not containing the pPEX-DsRED vector. Transformation of the tobacco leaves was carried out by the method described in Combier et al. (Genes & Dev, 22: 1549-1559, 2008)."}, "[5]": {"details": "plant in which MtmiPEP171b1 is overexpressed vs control plant"}, "[6]": {"details": "watering once daily for 5 days with peptide at 0.01, 0.1 or 1 μM vs control plant"}},
  "note": "Entries after “also recorded” stand apart in the source; their conditions may differ.",
  "data": [
    {"sequence": "MLLHRLSKFCKIERDIVYIS (listed as Medicago truncatula) [MtmiPEP171b1]", "values": [
      {"measurement": "relative expression of HAM1", "setting": "[1]; [5]", "result": "decrease in the expression of the HAM1 and HAM2 genes"},
      {"measurement": "relative expression of HAM1", "setting": "[1]; [6]", "result": "decrease in the expression of the HAM1 and HAM2 genes"},
      {"measurement": "relative expression of HAM2", "setting": "[2]; [5]", "result": "decrease in the expression of the HAM1 and HAM2 genes"},
      {"measurement": "relative expression of HAM2", "setting": "[2]; [6]", "result": "decrease in the expression of the HAM1 and HAM2 genes"},
      {"measurement": "mean number of lateral roots", "setting": "[3]; [5]", "result": "reduction in the number of lateral roots"},
      {"measurement": "mean number of lateral roots", "setting": "[3]; watering with peptide at 0.1 μM once daily for 5 days vs control plant", "result": "reduction in the number of lateral roots"},
      {"measurement": "ratio of the expression of the precursors of microRNAs to control roots (specificity)", "setting": "[4]", "result": "only leads to an effect on the accumulation of MtmiR171b and not on the other miRNAs; also recorded: only leads to an increase in the accumulation of MtmiR171b and not of the other miRNAs"},
      {"measurement": "relative expression of MtmiR171b", "setting": "MtmiR171b; tobacco co-transformed with empty vector, miPEP vector, ATT-mutated ORF or degenerate ORF", "result": "increases the expression of MtmiR171b"},
      {"measurement": "relative expression of pre-MtmiR171b", "setting": "MtmiR171b; tobacco expressing MtmiR171b alone vs MtmiR171b and MtmiPEP171b1 (or ATT-mutated miORF)", "result": "increases the expression of MtmiR171b"},
      {"measurement": "relative expression of pre-MtmiR171b", "setting": "MtmiR171b; tobacco expressing MtmiR171b and MtmiPEP171b1 with or without protein tags (His, HA or GFP)", "result": "increases the expression of MtmiR171b, and this effect is independent of the presence of tags"},
      {"measurement": "relative expression of MtmiR171b", "setting": "MtmiR171b; tobacco expressing MtmiR171b, peptide 0.1 μM sprayed twice, 12 h and 30 min before sampling", "result": "increase in the accumulation of MtmiR171b"},
      {"measurement": "relative expression of MtmiR171b", "setting": "MtmiR171b; tobacco expressing MtmiR171b, peptide 0.1 μM sprayed twice, 12 h and 30 min before sampling, listed as miPEP171b1", "result": "increases the accumulation"},
      {"measurement": "relative expression of pre-MtmiR171b", "setting": "MtmiR171b; tobacco expressing MtmiR171b, treated with 0.1 μM of peptide", "result": "increase in the accumulation"},
      {"measurement": "relative expression of pre-MtmiR171b", "setting": "MtmiR171b; tobacco expressing MtmiR171b, treated with 0.1 μM of peptide, listed as miPEP171b1", "result": "increases the accumulation"},
      {"measurement": "relative expression of MtmiR171b", "setting": "MtmiR171b; tobacco expressing pri-MtmiR171b vs mutated pri-MtmiR171b (ATG replaced with ATT, no translation of the miPEP)", "result": "marked decrease in the accumulation of miR171b; also recorded: marked decrease in the accumulation of MtmiR171b"},
      {"measurement": "relative expression of MtmiR171b", "setting": "MtmiR171b; tobacco expressing pri-MtmiR171b vs mutated pri-MtmiR171b (ATG replaced with ATT, no translation of the miPEP), listed as miPEP171b1", "result": "marked decrease in the accumulation of miR171b"}
    ]}
  ]
}
